Like-named read-outs stand apart in the source and are kept apart here.
Legend:
integrin α5β1 = target: T1, integrin α5β1 (Homo sapiens, UniProt P05556+P08648); test: ELISA-like competitive integrin binding assay (fibronectin-coated plates)
T1 construct: using the isolated extracellular domain of integrins αVβ3 and α5β1; purchased R&D
Description: (§1) An ELISA-like assay using the isolated extracellular domain of integrins αVβ3 and α5β1 was performed in flat-bottom 96-well immuno plates (Brand) to determine the activities of the synthesized compounds. All wells were coated overnight with the native integrin ligand vitronectin or fibronectin (1) (Table 1) in a carbonate buffer (150 µl/well), followed by washing of each well with the PBS-T buffer (3 × 200 µl/well) (Table 1) and blocking for 1 h with the TS-B buffer (150 µl/well) at RT. […] The protein-coated assay plate was washed with the PBS-T buffer (3 × 200 µl/well), and 50 µl of the dilution series was transferred to the assay plate wells B–G. The TS-B buffer was filled into row A (100 µl/well) as the negative control and row H (50 µl/well) as the positive control. Afterward, the corresponding human integrin (2, 50 µl/well) (Table 1) in the TS-B buffer was added to row B–H and incubated for 1 h at RT. After washing the assay plate with the PBS-T buffer (3 × 200 µl/well), the primary antibody (3, 100 µl/well) (Table 1) was transferred to each well and incubated for 1 h at RT. Then the plate was washed with the PBS-T buffer (3 × 200 µl/well), treated with the secondary antibody (4, 100 µl/well) (Table 1), and incubated for 1 h at RT. The plate was washed with the PBS-T buffer (3 × 200 µl/well), and SeramunBlau® fast2 (Seramun Diagnostics GmbH, 50 µl/well) was added to each well. Staining was stopped with 3 M aq. […] The absorbance was measured with a plate reader at 450 nm and corrected by subtraction of the absorbance at 620 nm. Afterward, the resulting values were plotted and analyzed using OriginPro® 2020b where the inflection point of a DoseResp fit describes the IC50 value. All compounds were tested in duplicates or triplicates for both integrins.
(§2) The affinities (Table 4) of the RGD mimetics (Table 3) toward the integrins αVβ3 and α5β1 were determined in a competitive enzyme-linked immunosorbent assay (ELISA) using recombinant human integrins with the native ligands vitronectin and fibronectin as described in the literature ([Mas-Moruno et al., 2016b]). […]
(§3) Table S1: Proteins and buffers applied in the ELISA-like assay.
(§4) An ELISA-like assay using the isolated extracellular domain of integrins αVβ3 and α5β1 was performed in flat-bottom 96-well immuno plates (Brand) to determine the activities of the synthesised compounds.
(§5) All wells were coated overnight with the native integrin ligand vitronectin or fibronectin (Table S1, (1)) in carbonate buffer (150 µL/well), followed by washing of each well with PBS-T buffer (3×200 µL/well) (Table S1) and blocking for 1 h with TS-B buffer (150 µL/well) at RT. A dilution […]
(§6) 1:10 dilution) in TS-B buffer. The protein-coated assay plate was washed with PBS-T buffer (3×200 µL/well) and 50 µL of the dilution series was transferred to the assay plate wells B-G. TS-B buffer was filled into row A (100 µL/well) as negative control and row H (50 µL/well) as positive control. Afterwards, the corresponding human integrin (2, 50 µL/well)) (Table S1) in TS-B buffer was added to row B-H and incubated for 1 h at RT. After washing the assay plate with PBS-T buffer (3×200 µL/well) the primary antibody (3, 100 µL/well) (Table S1) was transferred to each well and incubated for 1 h at RT. Then the plate was washed with PBS-T buffer (3×200 µL/well), treated with […]

integrin αVβ3 = target: T2, integrin αVβ3 (Homo sapiens, UniProt P05106+P06756); test: ELISA-like competitive integrin binding assay (vitronectin-coated plates)
T2 construct: using the isolated extracellular domain of integrins αVβ3 and α5β1; purchased Sino Biological
Description: as §1, §2, §3, §4, §5, §6

[1] = isolated extracellular domain of human integrin α5β1, ligand fibronectin, Cilengitide as reference on all plates
[2] = isolated extracellular domain of human integrin αVβ3, ligand vitronectin, Cilengitide as reference on all plates

Structure (SMILES) | IC50 (integrin α5β1) [nM] | IC50 (integrin αVβ3) [nM] | IC50 (integrin α5β1; [1]) [nM] | IC50 (integrin αVβ3; [2]) [nM]
O=C(N[C@@H](Cc1ccc(OCCCCNC2=NCCN2)cc1)C(=O)O)c1cccc(O)c1 [6ca] | – | – | 19.9 ± 8.7 | 1.01 ± 0.56
O=C(N[C@@H](Cc1ccc(OCCCNc2ncccn2)cc1)C(=O)O)c1cccc(O)c1 [5cb] | > 10000 | 7700 | – | –
O=C(N[C@@H](Cc1ccc(OCCCCNC2=NCCCN2)cc1)C(=O)O)c1ccc(O)cc1 [6bc] | 511 ± 183 | 38.7 ± 15.5 | – | –
O=C(N[C@@H](Cc1ccc(OCCCCNC2=NCCCN2)cc1)C(=O)O)c1cccc(O)c1 [6cc] | 107 ± 32 | 90.4 ± 31.3 | – | –
O=C(NC(Cc1ccc(OCCCCCNc2ncccn2)cc1)C(=O)O)c1cccc(O)c1 (stereo not shown) [7cb] | – | – | > 10000 | 2890
O=C(NC(Cc1ccc(OCCCCNc2ncccn2)cc1)C(=O)O)c1cccc(O)c1 (stereo not shown) [6cb] | – | – | > 10000 | 1850 ± 241
O=C(N[C@@H](Cc1ccc(OCCCCCNC2=NCCCN2)cc1)C(=O)O)c1cccc(O)c1 [7cc] | – | – | 210 ± 44.8 | 42.9 ± 9.47
O=C(NC(Cc1ccc(OCCCCNC2=NCCCN2)cc1)C(=O)O)c1ccccc1 (stereo not shown) [6ac] | – | – | 17.5 ± 6.76 | 32.8 ± 17.6
O=C(N[C@@H](Cc1ccc(OCCCNC2=NCCCN2)cc1)C(=O)O)OCc1ccccc1 [5dc] | 71.6 ± 16.1 | 4.68 ± 4.47 | – | –
O=C(N[C@@H](Cc1ccc(OCCCCNC2=NCCN2)cc1)C(=O)O)c1ccc(O)cc1 [6ba] | 35.2 ± 18.4 | 1900 ± 175 | – | –
O=C(N[C@@H](Cc1ccc(OCCCNC2=NCCCN2)cc1)C(=O)O)c1cccc(O)c1 [5cc] | 32.8 ± 11.2 | 452 ± 120 | – | –
O=C(N[C@@H](Cc1ccc(OCCCNC2=NCCN2)cc1)C(=O)O)OCc1ccccc1 [5da] | 162 ± 36 | 1.32 ± 0.11 | – | –
O=C(N[C@@H](Cc1ccc(OCCCNC2=NCCN2)cc1)C(=O)O)c1cccc(O)c1 [5ca] | 30.5 ± 20.7 | 9.29 ± 5.77 | – | –
O=C(N[C@@H](Cc1ccc(OCCCCNC2=NCCN2)cc1)C(=O)O)OCc1ccccc1 [6da] | 901 ± 223 | 1.2 ± 0.11 | – | –
O=C(N[C@@H](Cc1ccc(OCCCNc2ncccn2)cc1)C(=O)O)OCc1ccccc1 [5db] | > 10000 | 237 ± 69.7 | – | –
O=C(N[C@@H](Cc1ccc(OCCCNC2=NCCCN2)cc1)C(=O)O)c1ccccc1 [5ac] | 17.4 ± 3.34 | 18.1 ± 3.68 | – | –
O=C(N[C@@H](Cc1ccc(OCCCCNC2=NCCN2)cc1)C(=O)O)c1ccccc1 [6aa] | 175 ± 73.7 | 25.8 ± 6.77 | – | –
O=C(N[C@@H](Cc1ccc(OCCCCNc2ncccn2)cc1)C(=O)O)c1ccccc1 [6ab] | > 10000 | 6170 | – | –
O=C(NC(Cc1ccc(OCCCCCNc2ncccn2)cc1)C(=O)O)c1ccccc1 (stereo not shown) [7ab] | – | – | > 10000 | 8770
O=C(NC(Cc1ccc(OCCCNC2=NCCCN2)cc1)C(=O)O)c1ccc(O)cc1 (stereo not shown) [5bc] | – | – | 18.5 ± 3.65 | 70.4 ± 0.57
O=C(N[C@@H](Cc1ccc(OCCCCNC2=NCCCN2)cc1)C(=O)O)OCc1ccccc1 [6dc] | 745 ± 117 | 0.57 ± 0.03 | – | –
O=C(N[C@@H](Cc1ccc(OCCCNC2=NCCN2)cc1)C(=O)O)c1ccccc1 [5aa] | 25.2 ± 7.35 | 38.5 ± 24.3 | – | –
O=C(N[C@@H](Cc1ccc(OCCCNC2=NCCN2)cc1)C(=O)O)c1ccc(O)cc1 [5ba] | – | – | 43.4 ± 24.4 | 38.8 ± 19.2
O=C(NC(Cc1ccc(OCCCNc2ncccn2)cc1)C(=O)O)c1ccccc1 (stereo not shown) [5ab] | – | – | > 10000 | 1310
O=C(N[C@@H](Cc1ccc(OCCCNc2ncccn2)cc1)C(=O)O)c1ccc(O)cc1 [5bb] | > 10000 | 6530 | – | –
O=C(NC(Cc1ccc(OCCCCNc2ncccn2)cc1)C(=O)O)c1ccc(O)cc1 (stereo not shown) [6bb] | – | – | > 10000 | 5290
O=C(NC(Cc1ccc(OCCCCCNC2=NCCN2)cc1)C(=O)O)c1ccc(O)cc1 (stereo not shown) [7ba] | – | – | 1650 | 2.01 ± 0.4

Continued, in another order:

IC50 (integrin α5β1) [nM] | IC50 (integrin αVβ3) [nM] | Structure (SMILES) | IC50 (integrin α5β1; [1]) [nM] | IC50 (integrin αVβ3; [2]) [nM]
6080 | 98.1 ± 74.8 | O=C(N[C@@H](Cc1ccc(OCCCCCNC2=NCCN2)cc1)C(=O)O)c1cccc(O)c1 [7ca] | – | –
> 10000 | 2.93 ± 0.12 | O=C(N[C@@H](Cc1ccc(OCCCCCNC2=NCCCN2)cc1)C(=O)O)OCc1ccccc1 [7dc] | – | –
1690 | 38.5 ± 9.02 | O=C(N[C@@H](Cc1ccc(OCCCCCNC2=NCCN2)cc1)C(=O)O)c1ccccc1 [7aa] | – | –
136 ± 27.4 | 21 ± 5.84 | [N-]=[N+]=NCCOCCOCCOc1ccc(C(=O)N[C@@H](Cc2ccc(OCCCCCNC3=NCCN3)cc2)C(=O)O)cc1 [10c] | – | –
> 10000 | 8840 | O=C(N[C@@H](Cc1ccc(OCCCCCNc2ncccn2)cc1)C(=O)O)c1ccc(O)cc1 [7bb] | – | –
40 ± 6.5 | 278 ± 69.2 | [N-]=[N+]=NCCOCCOCCOc1ccc(C(=O)N[C@@H](Cc2ccc(OCCCNC3=NCCN3)cc2)C(=O)O)cc1 [10a] | – | –
404 ± 282 | 129 ± 2.35 | [N-]=[N+]=NCCOCCOCCOc1ccc(C(=O)N[C@@H](Cc2ccc(OCCCCNC3=NCCN3)cc2)C(=O)O)cc1 [10b] | – | –
8360 | 2630 | O=C(N[C@@H](Cc1ccc(OCCCCCNc2ncccn2)cc1)C(=O)O)OCc1ccccc1 [7db] | – | –
103 ± 54.4 | 36.4 ± 14.3 | O=C(N[C@@H](Cc1ccc(OCCCCCNC2=NCCCN2)cc1)C(=O)O)c1ccc(O)cc1 [7bc] | – | –
2770 | 58.8 ± 14.4 | O=C(N[C@@H](Cc1ccc(OCCCCCNC2=NCCCN2)cc1)C(=O)O)c1ccccc1 [7ac] | – | –
7750 | 3.76 ± 1.98 | O=C(N[C@@H](Cc1ccc(OCCCCCNC2=NCCN2)cc1)C(=O)O)OCc1ccccc1 [7da] | – | –

Reference: paper PMC9035832, “Synthesis and Evaluation of a Non-Peptide Small-Molecule Drug Conjugate Targeting Integrin αVβ3” (Frontiers in Chemistry, 2022)
